From patent publication US5877202A, “Indole derivatives useful to treat estrogen-related neoplasms and disorders” (priority 1996, dated 1999)
Read-outs that look alike come from different tables or passages of the source. Values belong to the compound of their own block, whether it stands above or below them.

Tests used:
estrogen receptors = target: T1, estrogen receptors (Homo sapiens, UniProt P03372); assay: Quantification of estrogen receptors in nuclear and whole cell extracts (ER-EIA monoclonal kit), Table 1; format: cell-based, human (MCF-7 human breast cancer cells)
T1 construct: estrogen receptor extracted from MCF-7 human breast tumor cells; endogenous in cells; host or cells: MCF-7 human breast cancer cells (nuclear extract, cytosol or whole cell extract)
T1 sequence (P03372 1-595): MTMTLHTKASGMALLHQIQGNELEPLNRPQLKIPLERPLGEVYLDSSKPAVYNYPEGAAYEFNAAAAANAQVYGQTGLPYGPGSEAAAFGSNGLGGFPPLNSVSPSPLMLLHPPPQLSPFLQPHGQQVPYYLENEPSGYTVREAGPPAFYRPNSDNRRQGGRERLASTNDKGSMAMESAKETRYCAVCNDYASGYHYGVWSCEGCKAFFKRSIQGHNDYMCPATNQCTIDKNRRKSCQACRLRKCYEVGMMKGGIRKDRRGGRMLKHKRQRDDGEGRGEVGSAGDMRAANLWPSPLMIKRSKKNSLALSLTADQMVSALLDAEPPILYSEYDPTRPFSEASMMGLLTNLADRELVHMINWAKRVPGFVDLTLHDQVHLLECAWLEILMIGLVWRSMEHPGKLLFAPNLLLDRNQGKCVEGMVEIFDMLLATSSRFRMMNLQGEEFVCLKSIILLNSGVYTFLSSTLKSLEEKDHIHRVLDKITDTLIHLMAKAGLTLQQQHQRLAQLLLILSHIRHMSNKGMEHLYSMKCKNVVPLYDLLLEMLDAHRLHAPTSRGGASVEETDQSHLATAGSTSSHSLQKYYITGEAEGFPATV
Procedure: (§1) Monolayers of MCF-7 human breast cancer cells are rinsed once with HBSS and scraped off culture dishes into 15 ml conical tubes with 5 ml HBSS. The cells are sedimented by centrifugation at 250×g for five minutes, suspended in 1 ml HBSS and sedimented by centrifugation at 2000 rpm in a tabletop centrifuge for five minutes in a 1.5 ml microfuge tube. Two PCV of a solution of a lysis buffer (25 mM HEPES, pH 7.8, 50 mM KCl, 0.5% Nonidet P 40, 2 mM dithiothreitol, 0.2 mM phenylmethylsulfonyl fluoride, 0.05 mg/ml leupeptin, 0.05 mg/ml aprotinin, 0.0025 mg/ml pepstatin, 0.005 mg/ml antipain) are added and cells are kept on ice for 15 minutes. Lysed cells are centrifuged for 3 minutes at 10,000×g, supernatant decanted, and kept as the cytosol fraction. Pellets are suspended in two PCV of extraction buffer (25 mM HEPES, pH 7.8, 500 mM KCl, 10% glycerol, 2 mM dithiothreitol and the above protease inhibitors), mixed for 20 minutes by inversion at 4 degrees C. and centrifuged at 10,000×g for 20 minutes. The supernatant is decanted and saved as nuclear extract. Both the nuclear extract and the cytosol are dialyzed for two hours against dialysis buffer (25 mM HEPES, pH 7.8, 50 mM KCl, 10% glycerol, 2 mM dithiothreitol and the above protease inhibitors). Nuclear and cytosol fractions are stored frozen at -80 degrees C. until used for mobility shift assays or determination of estrogen receptor content.
Whole cell extracts of tumor cells are prepared by the method of Reese and Katzenellenbogen, Nuc. Acids Res., 19: 6595-6602 (1991), with some modifications. Cell monolayers are rinsed once with HBSS, then scraped into HBSS and sedimented by centrifugation (5 min., 250×g). After resuspending in 1 mL HBSS, the cells are again sedimented at 250×g for 5 min at 4° C. The cell pellet is resuspended in lysis/extract buffer containing 20 mM Tris, pH 7.5, 10% glycerol (v/v), 0.5M sodium chloride and 0.5% NP-40 (v/v) and incubated on ice for 25 minutes, then the supernatants are dialyzed against 25 mM HEPES, pH 7.8, 10% glycerol (v/v), 0.5 mM dithiothreitol and 50 mM potassium chloride for 2 hours at 4° C. Both the lysis/extraction and the dialysis buffers contain protease inhibitors which included 0.5 mM phenylmethylsulfonylfluoride, 0.05 mg/mL leupeptin, 0.05 mg/mL aprotinin, 0.00-25 mg/mL pepstatin, and 0.005 mg/mL antipain. Dialyzed whole cell extracts are stored in aliquots at -80° C. until used.
The protein concentration for nucleus and cytosol fractions are determined with a BIO-RAD kit, according to the manufacturer's instructions.
Estrogen receptor levels in nuclear and whole cell extracts of tumor cells were quanitated using the ER-EIA monoclonal kit manufactured by Abbott Laboratories (Diagnostic Division) according to the kit instructions.
receptors in nuclear extracts.
.dagger.WCE refers to IC50 value for estrogen receptors in whole cel
A slash dividing two numbers indicates the results of two separate

[1] = target: T2, estrogen receptor binding to an estrogen response element (Homo sapiens, UniProt P03372); assay: Inhibition of estrogen receptor binding to an estrogen response element in DNA mobility shift assays; format: biochemical, human (nuclear extract of MCF-7 human breast cancer cells); conditions: read-out: integrated volume of shifted ERE oligo as percentage of control, given as % inhibition
T2 construct: estrogen receptor extracted from MCF-7 human breast tumor cells; endogenous in cells; host or cells: MCF-7 human breast cancer cells (nuclear extract, cytosol or whole cell extract)
T2 sequence (P03372 1-595): T1 sequence (P03372 1-595)
Procedure: as §1
Briefly, to each reaction tube was added 0.01 mg nuclear extract, 2 μg poly dIdC, 50 mM NaCl, 1 mM dithiothreitol and 10 mM Tris, pH 7.5 in a total volume of 0.01 ml and the mixture was kept at room temperature for 10 minutes. A ^32 P-labelled estrogen response element [ERE]

estrogen receptor mRNA = assay: Reduction of estrogen receptor mRNA levels in treated MCF-7 human breast tumor cells; format: cell-based; conditions: 30 μM, 24 hr;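 for Estrogen Receptor mRNA band intensity: Phosphoimager intensity of radioactive mRNA bands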
Procedure: (§2) After treatment with 30 μM drug for 24 hr, total RNA is isolated according to the guanidinium isothiocyanate method using an RNA preparation kit from 5 Prime-3 Prime, Inc., following the manufacturer's instructions. The RNA is separated by formaldehyde gel electrophoresis and transferred to a nylon membrane.

MCF-7 estrogen receptor = target: T3, MCF-7 estrogen receptor (Homo sapiens, UniProt P03372); assay: Competitive binding assay, Relative Binding Affinities on binding of estradiol to MCF-7 estrogen receptor
T3 construct: estrogen receptor extracted from MCF-7 human breast tumor cells; endogenous in cells; host or cells: MCF-7 human breast cancer cells (nuclear extract, cytosol or whole cell extract)
T3 sequence (P03372 1-595): T1 sequence (P03372 1-595)
Procedure: Briefly, RBAs are determined from competitive binding assays with several concentrations of estradiol (E2) with and without test compound. After 16-18 hours of incubation at 4 degrees C., unbound [^3 H] E2 is separated from ER-bound [^3 H] E2. The IC50 is determined and the RBA is calculated as: […]

GAPDH mRNA = GAPDH mRNA levels in treated MCF-7 human breast tumor cells (positive control probe); format: cell-based; conditions: 30 μM, 24 hr;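 note: Phosphoimager intensity of radioactive mRNA bands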
Procedure: as §2

[2] = estrogen receptors in nuclear extracts
[3] = WCE: estrogen receptors in whole cell extracts

Compound: CCCCN(C)C(=O)CCCCCCNC(=O)Cc1c(C)n(CCCc2ccccc2)c2ccc(O)cc12 [MDL 104,261, 7-[[5-Hydroxy-1-(3-phenylpropyl)-2-methyl-1H-indol-3-yl]-acetylamino]-heptanoic acid methyl-butyl-amide]
IC50 (estrogen receptors; [2]): 23.5 µM

Compound: CCCCN(C)C(=O)CCCCCCCNC(=O)Cc1cn(Cc2ccccc2)c2ccccc12 [MDL 103,948, 8-[[1-Benzyl-1H-indol-3-yl]-acetylamino]-octanoic acid methyl-butyl-amide]
IC50 (estrogen receptors; [3]): 14 µM

Compound: CCCCN(C)C(=O)CCCCCCCNC(=O)Cc1c(-c2ccc(F)cc2)n(Cc2ccccc2)c2ccc(O)cc12 [MDL 103,970, 8-[[5-Hydroxy-1-benzyl-2-(4-fluorophenyl)-1H-indol-3-yl]-acetylamino]-octanoic acid methyl-butyl-amide]
IC50 (estrogen receptors; [2]): 16 µM

Compound: CCCCN(C)C(=O)CCCCCCNC(=O)Cc1c(-c2ccc(O)cc2)n(Cc2ccccc2)c2ccc(O)cc12 [MDL 103,623, 7-[[5-Hydroxy-1-benzyl-2-[(4-hydroxy)phenyl]-1H-indol-3-yl]-acetylamino]-heptanoic acid methyl butyl-amide]
IC50 (estrogen receptors; [2]): 16 µM
IC50 (estrogen receptors; estrogen receptors in nuclear extracts, second of two separate experiments (after the slash)): 17 µM

Compound: Cc1c(CC(=O)NCCCCCCC(=O)N(C)c2ccccc2)c2cc(O)ccc2n1C(=O)c1ccccc1 [MDL 103,005, 7-[[5-Hydroxy-1-benzoyl-2-methyl-1H-indol-3-yl]-acetylamino]-heptanoic acid methyl-phenyl-amide]
IC50 (estrogen receptors; [2]): 27 µM

Compound: CCCCc1ccc(C(=O)n2c(C)c(CC(=O)NCCCCCCC(=O)N(CC)CC)c3cc(O)ccc32)cc1 [MDL 103,494, 7-[[5-Hydroxy-1-(4-butylbenzoyl)-2-methyl-1H-indol-3-yl]-acetylamino]-heptanoic acid diethyl-amide]
IC50 (estrogen receptors; [3]): 28 µM

Compound: CCCCN(C)C(=O)CCCCCCCNC(=O)Cc1c(-c2ccc(OC(C)=O)cc2)n(Cc2ccccc2)c2ccc(OC(C)=O)cc12 [MDL 104,401, 8-[[5-Acetoxy-1-benzyl-2-[(4-acetoxy)-phenyl]-1H-indol-3-yl]-acetylamino]-octanoic acid methyl-butyl-amide]
inhibition at 2 µM [1]: 120%
inhibition at 5 µM [1]: 92%
inhibition at 10 µM [1]: 59%
inhibition at 20 µM [1]: 49%
inhibition at 30 µM [1]: 44%
IC50 (estrogen receptors; [2]): 28 µM

Compound: CCN(CC)C(=O)CCCCCCCNC(=O)Cc1c(C)n(C(=O)c2ccc(Cl)cc2)c2ccc(O)cc12 [MDL 104,631, 8-[[5-Hydroxy-1-(4-chlorobenzoyl)-2-methyl-1H-indol-3-yl]-acetylamino]-octanoic acid diethyl-amide]
IC50 (estrogen receptors; [2]): 16 µM

Compound: CCCCNC(=O)CCCCCCCNC(=O)Cc1c(-c2ccc(O)cc2)n(Cc2ccccc2)c2ccc(O)cc12 [MDL 104,262, 8-[[5-Hydroxy-1-benzyl-2-[(4-hydroxy)phenyl]-1H-indol-3-yl]-acetylamino]-octanoic acid butyl-amide]
IC50 (estrogen receptors; [2]): 25 µM

The next lines start with results.

IC50 (estrogen receptors; [2]): 12 µM
Compound: CCCCN(C)C(=O)CCCCCCCNC(=O)Cc1cn(Cc2ccccc2)c2ccc(F)cc12 [MDL 104,822, 8-[[5-Fluoro-1-benzyl-1H-indol-3-yl]-acetylamino]-octanoic acid methyl-butyl-amide]

IC50 (estrogen receptors; [2]): 16 µM
Compound: CCCCN(C)C(=O)CCCCCCCNC(=O)Cc1c(C)n(C(=O)c2ccc(OC)cc2)c2ccc(O)cc12 [MDL 105,517, 8-[[5-Hydroxy-1-(4-methoxybenzoyl)-2-methyl-1H-indol-3-yl]-acetylamino]-octanoic acid methyl-butyl-amide]

inhibition at 2 µM ([1]; 2 μM): 7.6%
inhibition at 5 µM ([1]; 5 μM): 60%
inhibition at 10 µM ([1]; 10 μM): 84%
inhibition at 20 µM ([1]; 20 μM): 33%
inhibition at 30 µM ([1]; 30 μM): 30%
inhibition of estradiol binding to MCF-7 ER (MCF-7 estrogen receptor; doses of 100 or 200 nM): did not significantly inhibit
inhibition of estradiol binding to MCF-7 ER (MCF-7 estrogen receptor; typically, at doses of 100 or 200 nM): less than 10%
Compound: CCCCN(C)C(=O)CCCCCCCNC(=O)Cc1c(C)n(C(=O)c2ccccc2)c2ccc(O)cc12 [MDL 105,813, 8-[[5-Hydroxy-1-benzoyl-2-methyl-1H-indol-3-yl]-acetylamino]-octanoic acid methyl-butyl-amide]
ER/GAPDH mean (estrogen receptor mRNA; mean of replicates 1 and 2): 0.63
ER/GAPDH (estrogen receptor mRNA; replicate 1): 0.75
Estrogen Receptor mRNA band intensity (estrogen receptor mRNA; replicate 1): 5,288
ER/GAPDH (estrogen receptor mRNA; replicate 2): 0.5
Estrogen Receptor mRNA band intensity (estrogen receptor mRNA; replicate 2): 2,418
activity at 30 µM (estrogen receptor mRNA; Homo sapiens, MCF7, read-out: ER/GAPDH % Control): 17%
GAPDH mRNA band intensity (GAPDH mRNA; replicate 1): 6,996
GAPDH mRNA band intensity (GAPDH mRNA; replicate 2): 4,830

IC50 (estrogen receptors; [2]): 19 µM
Compound: CCCCN(C)C(=O)CCCCCNC(=O)Cc1c(C)n(C(=O)c2ccc(Cl)cc2)c2ccc(O)cc12 [MDL 105,643, 6-[[5-Hydroxy-1-(4-chlorobenzoyl)-2-methyl-1H-indol-3-yl]-acetylamino]-hexanoic acid methyl-butyl-amide]

IC50 (estrogen receptors; [2]): 20 µM
Compound: CCCCN(C)C(=O)CCCCCNC(=O)Cc1c(-c2ccc(O)cc2)n(Cc2ccccc2)c2ccc(O)cc12 [MDL 104,982, 6-[[5-Hydroxy-1-benzyl-2-[(4-hydroxy)phenyl]-1H-indol-3-yl]-acetylamino]-hexanoic acid methyl-butyl-amide]
